Data as given in publication PMC4561207 (Child's nervous system : ChNS : official journal of the …, 2015).

How the values were obtained:
[1] = Steady-state plasma pharmacokinetics, day 28 of course 1; type: in vivo, human
[2] = tested on: progressive glioblastoma multiforme; details: adults, therapy initiated at 45mg; cited from earlier work
[3] = Phase I dose escalation; type: in vivo
[4] = tested on: primary CNS tumor; assay: MR diffusion and permeability perfusion imaging of tumor; type: in vivo, human
[5] = pediatric MTD of 12mg/m^2/day; cited from earlier work

## COc1cc2c(Oc3ccc4[nH]c(C)cc4c3F)ncnc2cc1OCCCN1CCCC1 [cediranib, Cediranib]
[1]; 20mg/m^2 QD, day 28 pre-dose trough
  Css,min, median: 11.5 ng/mL
[1]; day 28, steady state, plasma
  Css,max, median: 48.0 ng/mL
[1]; human, plasma, oral
  Tmax: 2 to 6 h
[1]; human, plasma, oral, 32 mg/m2, steady-state AUC0—tlast, 32mg/m^2 QD, n=2
  AUC: 892 ng·h/mL
[1]; human, plasma, oral, 32 mg/m2, steady-state AUC0—tlast, range, 32mg/m^2 QD, n=2
  AUC: 522 to 1260 ng·h/mL
[1]; human, plasma, oral, 40 mg/m2, steady-state AUC0—tlast, 40mg/m^2 QD, n=1
  AUC: 770 ng·h/mL
[2]
  6-month progression-free survival: 26%
  radiographic response, patients: 57%
[3]; Stratum II (patients receiving EIACD), maximum dose tested 20mg/m^2/d
  MTD: not achieved
[3]; human, in vivo
  DLTs identified: 8
[4]; baseline to course 1 day 7–14, p=0.0469
  change in two dimensional mean permeability values: suggested a decrease from baseline
[4]; baseline to end of course 2, p=0.0078 each
  change in 2D permeability and 3D permeability values: suggested a decrease from baseline
[5]
  median AUC(0-inf): 900 ng·h/mL
  median Cmax: 67 ng/mL
